Assay results taken from PubChem BioAssay AID493101 (Broad Institute, 2011).
Records with an inconclusive call do not appear. Activity calls are given as the source filed them.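 The calls were made as follows: active = luminescence falls with dose and the fitted half-maximal concentration is within ten times the top dose in every run; inconclusive = runs disagree, or a flat moderate drop, or a poor fit; inactive = every run inactive, including rises or flat response.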

Test system: Vibrio harveyi JMH597 AI-2 quorum sensing luminescence, 9 h
Assay: inhibitors of AI-2 quorum sensing in V. harveyi, dose response, LuxS, LuxPQ, dry powder, set 4 (AID 493101)
Settings: not given
Compound Cn1cnc(S(=O)(=O)Nc2ccc(OC(F)(F)F)cc2)c1 has an AC50 of 8.62 µM. With O=S(=O)(Nc1cccnc1)c1ccc(Oc2ccccc2)cc1 the AC50 was 0.766 µM. With C=Cn1c(C(=O)O)ccc1-c1ccc(CC)cc1 the AC50 was 3.22 µM. O=S(=O)(Nc1ccccn1)c1ccc(Oc2ccccc2)cc1 showed an AC50 of 7.34 µM. CCc1ccc(-c2ccc(C(=O)O)n2C)cc1 showed an AC50 of 5.52 µM. O=C1C=C/C(=C/Br)O1 gave an AC50 of 4.64 µM.

Test system: not listed separately
Assay: as above
Settings: Vibrio harveyi JMH597 AI-2 quorum sensing luminescence, 9 h; at 16 µM (top of the series)
With CCc1ccc(-c2ccc(C(=O)O)n2CC)cc1 the activity change, negative = inhibition was 2.4% (inactive). For Cn1cnc(S(=O)(=O)Nc2ccccc2Cl)c1, the activity change, negative = inhibition was 3.87% (inactive). For Cc1ccccc1NS(=O)(=O)c1cn(C)cn1, the activity change, negative = inhibition was -1.44% (inactive). With CN(C)C(=O)c1ccccc1NS(=O)(=O)c1cn(C)cn1 the activity change, negative = inhibition was 0.404% (inactive). In the case of Cn1cnc(S(=O)(=O)Nc2ccccc2F)c1, the activity change, negative = inhibition is reported as 2.07% (inactive). In the case of COc1ccccc1NS(=O)(=O)c1cn(C)cn1, the activity change, negative = inhibition is reported as -5.36% (inactive). With CC(=O)Nc1ccccc1NS(=O)(=O)c1cn(C)cn1 the activity change, negative = inhibition was 2.17% (inactive).
